Tests used:
[1] = molecular target: T1, IDH1 (isocitrate dehydrogenase 1) (Homo sapiens, UniProt O75874, R132H); experiment: non-denaturing mass spectrometry; 1H NMR after denaturation; assay type: binding; conditions: copurified; NMR identifies NADPH only; resting state, no substrate
T1 construct: recombinant, purified; copurifies with NADP(H)

[2] = molecular target: T2, IDH1 (isocitrate dehydrogenase 1) (Homo sapiens, UniProt O75874); experiment: 1H NMR of cofactor released by thermal denaturation; native MS; electrochemical retention; assay type: binding; conditions: copurified; resting state, no substrate; part of a NADP+/NADPH mixture
T2 construct: recombinant, purified; copurifies with NADP(H)

[3] = molecular target: T1, IDH1 (isocitrate dehydrogenase 1); experiment: electrochemical retention after buffer exchange and potential switch; assay type: biochemical; conditions: nanoconfined with FNR; resting state; binds much less tightly than NADPH; pH 8, 10 mM MgCl2
[4] = molecular target: T3, Ferredoxin NADP+ reductase (FNR) (Chlamydomonas reinhardtii, UniProt P53991); experiment: 1H NMR of cofactor released by denaturation; assay type: binding; conditions: prosthetic group
T3 construct: gene PETH; recombinant, purified; 39 kDa; FAD flavoprotein
T3 sequence (P53991 36-354): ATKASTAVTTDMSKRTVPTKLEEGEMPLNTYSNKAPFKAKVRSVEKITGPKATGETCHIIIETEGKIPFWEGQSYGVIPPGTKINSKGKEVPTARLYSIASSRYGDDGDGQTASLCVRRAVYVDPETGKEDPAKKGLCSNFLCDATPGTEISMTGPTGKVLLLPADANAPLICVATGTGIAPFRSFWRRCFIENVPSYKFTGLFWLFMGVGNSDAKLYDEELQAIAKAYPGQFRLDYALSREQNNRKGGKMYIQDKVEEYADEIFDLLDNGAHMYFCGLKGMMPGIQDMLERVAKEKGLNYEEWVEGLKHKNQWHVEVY

T1 sequence (O75874 whole entry R132H): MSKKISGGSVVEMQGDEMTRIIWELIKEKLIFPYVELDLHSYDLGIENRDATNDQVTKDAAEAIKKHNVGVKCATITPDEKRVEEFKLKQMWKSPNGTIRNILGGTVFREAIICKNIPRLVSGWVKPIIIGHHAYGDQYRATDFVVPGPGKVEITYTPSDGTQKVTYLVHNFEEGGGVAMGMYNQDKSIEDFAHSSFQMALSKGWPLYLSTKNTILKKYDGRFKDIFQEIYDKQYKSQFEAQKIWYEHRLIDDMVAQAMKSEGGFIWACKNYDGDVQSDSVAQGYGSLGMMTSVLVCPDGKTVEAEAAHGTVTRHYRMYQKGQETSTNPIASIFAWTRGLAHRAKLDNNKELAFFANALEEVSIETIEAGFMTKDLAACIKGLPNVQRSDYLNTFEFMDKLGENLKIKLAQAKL
T2 sequence (O75874 whole entry): as the sequence (O75874 whole entry R132H) above, with H132R counted along it

NC(=O)C1=CN([C@@H]2O[C@H](COP(=O)(O)OP(=O)(O)OC[C@H]3O[C@@H](n4cnc5c(N)ncnc54)[C@H](OP(=O)(O)O)[C@@H]3O)[C@@H](O)[C@H]2O)C=CC1 [NADPH]
NADP(H) active site occupancy [1]: ~ 97.5% | 1H NMR of cofactor released by thermal denaturation; native MS; electrochemical [2]: wild-type IDH1 (Fig. 1A) copurified with a mixture of NADP^+ and NADPH bound

NC(=O)c1ccc[n+]([C@@H]2O[C@H](COP(=O)(O)OP(=O)(O)OC[C@H]3O[C@@H](n4cnc5c(N)ncnc54)[C@H](OP(=O)(O)O)[C@@H]3O)[C@@H](O)[C@H]2O)c1 [NADP^+]
electrochemical retention after buffer exchange and potential switch [3]: IDH1 R132H binds NADP^+ much less tightly than NADPH | 1H NMR of cofactor released by thermal denaturation; native MS; electrochemical [2]: wild-type IDH1 (Fig. 1A) copurified with a mixture of NADP^+ and NADPH bound

Cc1cc2nc3c(=O)[nH]c(=O)nc-3n(C[C@H](O)[C@H](O)[C@H](O)COP(=O)(O)OP(=O)(O)OC[C@H]3O[C@@H](n4cnc5c(N)ncnc54)[C@H](O)[C@@H]3O)c2cc1C [flavin adenine dinucleotide]
1H NMR of cofactor released by denaturation [4]: release of its prosthetic group, flavin adenine dinucleotide (FAD), upon denaturation

From PMC9910440, “NADP(H)-dependent biocatalysis without adding NADP(H)” (Proceedings of the National Academy of Sciences of the …, 2022)
